For series [1], the system named is human megakaryocytopoiesis. Particulars: cited from earlier work.
The test system of series [2] is human phosphodiesterase III (PDE III). Kind of series: PDE III inhibition. The series is classed as biochemical. From the text: In early volunteer trials, the most frequently reported adverse effects AEs other than headache were palpitations, postural dizziness and nausea. During patient studies, the most frequently reported drug-related AEs were headache, palpitations, oedema/fluid retention, nausea/vomiting, diarrhea, dizziness and abdominal pain. These effects are all likely to arise from the secondary, cardiovascular pharmacology associated with anagrelide resulting from its inhibitory effects on human phosphodiesterase III (PDE III). […] Inhibition of myocardial PDE III leads to positive inotropy (increasing of the force of contractions of the heart), increased chronotropy (increase in heart rate), and peripheral vasodilatation. Such cardiovascular manifestations of this inhibition are typically seen with the classical positive inotropes, milrinone and enoximone, and exploited in the short-term acute treatment of congestive heart failure. However, in the treatment of a so-called silent disease (i.e., asymptomatic) such as ET, the cardiovascular side-effects of palpitations and tachycardia associated with anagrelide limit its utility and a significant proportion of patients—reportedly between 25 and 50%—fail to tolerate the drug during long term treatment.

For series [3] the following is noted: in vivo; cited from earlier work.
Series [4] is described as follows: Pharmacokinetics of anagrelide and its metabolite. The series is classed as in vivo, human. The settings on record: typical exposures, relative to anagrelide. From the text: The PDE III inhibitory properties of anagrelide are quite distinct from its platelet lowering anti-megakaryocytic effects. Indeed studies have shown no correlation between potency as a PDE III inhibitor and anti-megakaryocytic effects for anagrelide and its principal pharmacologically active metabolite, 3-hydroxyanagrelide (3-OH anagrelide or 3-HA, formerly known as SPD604 or BCH24426). […] Anagrelide's active metabolite, 3-HA, is present in vivo in amounts greatly exceeding those of the parent drug with typical exposures being 2-3 fold greater. Thus by implication 3-OH anagrelide is likely to be a major contributor to the pharmacological actions of the drug.
The metabolism of anagrelide generally proceeds extremely rapidly, resulting in a less than ideal pharmacokinetic profile of the drug. […] This, combined with the side-effects profile, can lead to poor patient compliance. Furthermore, anagrelide undergoes a large first pass effect (>50%) leading to considerable intersubject variation in achieved exposures and, therefore, potentially variable drug response. Also, exposure to the pharmacologically active metabolite varies dramatically between patients since its formation is dependent on CYP1A, an enzyme whose expression is highly dependent on exposure to inducing agents such as cigarette smoke. […]

In series [5] the target is human phosphodiesterase III (PDE III). Particulars: cited from earlier work.
Series [6] deals with erythroid or myelomonocytic differentiation. The settings on record: stimulated by erythropoietin or granulocyte-macrophage colony-stimulating factor; cited from earlier work.
The subject of series [7] is platelet count. The settings on record: patients with thrombocythemia secondary to a myeloproliferative disorder; cited from earlier work.

As for `O=C1NC2=Nc3ccc(Cl)c(Cl)c3CN2C1O` (stereo not shown) [3-hydroxyanagrelide], the “potency of inhibition of megakaryocytopoiesis relative to parent drug” value in series [1] (relative to anagrelide) is “no more potent than the parent drug”. Besides, in series [2], the “potency as PDE III inhibitor relative to anagrelide” value is given as “over 40 fold”. Moreover, the typical half-life in series [3] is 2.5 h. The “exposure in vivo relative to parent drug” value in series [4] is 2-3 fold.

The IC50 is the concentration that gives 50% inhibition. Turning to `Cc1[nH]c(=O)c(C#N)cc1-c1ccncc1` [milrinone], in series [5], the IC50 is 170 to 350 nM.

Turning to `O=C1CN2Cc3c(ccc(Cl)c3Cl)N=C2N1` [Anagrelide, 6,7-dichloro-1,5-dihydroimidazo[2,1-b]-quinazolin-2(3H)-one], the IC50 was approximately 26 nM in series [1] (TPO-induced, dose-dependent, read-out: estimated IC50, inhibition of TPO-induced megakaryocytopoiesis) and approximately 29 nM in series [5]. For the same molecule, the “effect on erythroid or myelomonocytic differentiation” value in series [6] is listed as “does not affect”. In addition, the first pass effect in series [3] is recorded as more than 50%. Further, the “time to complete response (platelet count ≦600×10^9/L)” value in series [7] was 4 to 12 weeks.

These data come from patent US20110152298A1, “IMIDAZO [2,1-B] QUINAZOLIN-2-ONE DERIVATIVES AND THEIR USE AS PLATELET ANTI-AGGREGATIVE AGENTS” (SHIRE LLC, priority 2008, published 2011).
